The text below walks through data of patent publication US20080004276A1, “Method for treating non-hodgkin's lymphoma” (priority 2006, published 2008).

Usually IC50 stands for the concentration that gives 50% inhibition. A lower IC50 goes with greater potency in that assay.

The subject of data set [1] is MDA-MB-435S. In words: MDA-MB-435S nude mouse xenograft model. The format is in vivo. As to conditions: 300 mg/kg IP, 5 times per week for 3 weeks, nude mice; FIG. 4. The procedure: FBS was obtained from Sigma-Aldrich Corp. (St. Louis, Mo., USA), and all other reagents were obtained from Invitrogen Corp. (Carlsbad, Calif., USA). Approximately 4-5×10(6) cells that had been cryopreserved in liquid nitrogen were rapidly thawed at 37° C. and transferred to a 175 cm^2 tissue culture flask containing 50 ml of growth media and then incubated at 37° C. in a 5% CO2 incubator. The growth media was replaced every 2-3 days until the flask became 90% confluent, typically in 5-7 days. To passage and expand the cell line, a 90% confluent flask was washed with 10 ml of room temperature phosphate buffered saline (PBS) and the cells were disassociated by adding 5 ml 1× Trypsin-EDTA (Invitrogen) and incubating at 37° C. until the cells detached from the surface of the flask. To inactivate the trypsin, 5 ml of growth media was added and then the contents of the flask were centrifuged to pellet the cells. The supernatant was aspirated and the cell pellet was resuspended in 10 ml of growth media and the cell number determined using a hemocytometer. […]
Six to eight week old, female Crl:CD-1-nuBR (nude) mice were obtained from Charles River Laboratories (Wilmington, Mass., USA). […] Tumor volumes (V) were calculated by caliper measurement of the width (W), length (L) and thickness (T) of tumors using the following formula: V=[…]×(L×W×T). […]

Data set [2] has as its system Her2. In words: IC50 range for inhibition of Her2 degradation (Table 8). As to conditions: Homo sapiens. The class given is cell-based. The procedure: Human high-Her2 breast carcinoma BT474 (HTB-20), SK-BR-3 (HTB-30) and MCF-7 breast carcinoma (HTB-22) from American Type Culture Collection, VA, USA were grown in Dulbecco's modified Eagle's medium with 4 mM L-glutamine and antibiotics (100 IU/ml penicillin and 100 ug/ml streptomycine; GibcoBRL). To obtain exponential cell growth, cells were trypsinized, counted and seeded at a cell density of 0.5×10^6 cells/ml regularly, every 3 days. All experiments were performed on day 1 after cell passage. […]
After treatment with a compound of the invention, cells were washed twice with 1×PBS/1% FBS, and then stained with anti-Her2-FITC (#340553, BD) for 30 min at 4° C. Cells were then washed three times in FACS buffer before the fixation in 0.5 ml 1% paraformadehydrede. Data was acquired on a FACSCalibur system. Isotype-matched controls were used to establish the non-specific staining of samples and to set the fluorescent markers. A total 10,000 events were recorded from each sample. Data were analysed by using CellQuest software (BD Biosciences).

Entries after “also recorded” stand apart in the source; their conditions may differ.

As for `CCc1cc(-c2nnc(S)n2-c2cccc3ccccc23)c(O)cc1O` [Compound 49, 3-(2,4-Dihydroxy-5-ethyl-phenyl)-4-(naphthalen-1-yl)-5-mercapto-triazole], in data set [1], the “toxicity (effect on body weights)” value was “not associated with significant toxicity; also recorded: not toxic”. Besides, the IC50 in data set [2] is under 3000 nM.
